According to US10537547B2, “Compositions favoring wound repair” (UNIVERSITÉ LAVAL, priority 2015, dated 2020):

Legend:
[1] = tested on: tissue-engineered human corneas; experiment: Wound closure of punch-wounded tissue-engineered human corneas; format: cell-based; conditions: 8-mm punch wound; compounds in culture medium at 2x reported IC50 (GDC-0068 36 nM; C646 800 nM; SC79 10 μM along with C646 800 nM); monitored over 4 days; n=4
Protocol: FIGS. 5A to 5C illustrate the pharmacological alteration of Akt and CREB on wound closure dynamic. (A) Left panel: Tissue-engineered human corneas (TEC) (four reconstructed corneas per condition) were wounded as in FIG. 2 and then maintained in culture medium supplemented with […] (36 nM, thin line), a pharmacological inhibitor of Akt phosphorylation, and C646 (800 nM, broken line), an inhibitor of CREB phosphorylation. Wounded corneas used as controls were exposed solely to the vehicle (DMSO, thick line). Wound closure was monitored over a 4-day period. Right panel: Measurement of wound surface remaining at each day using the ImageJ64 software (n=4). (B) Left panel: TECs were wounded as in (A) and maintained in culture medium containing C646 (800 nM) along with the AKT agonist SC79 (10 μM) (thin line) or DMSO (broken line). Wound closure was monitored as in (A). Right panel: Measurement of wound surface remaining at each day using the ImageJ64 software (n=4). (C) Composite image showing a complete view of the wounded TECs exposed either to the vehicle (DMSO) or pharmacological compounds (C646, GDC0068 or the combination of C646 and SC79) 4 days following corneal damage (sections were stained with Masson's trichrome; cells are pink and collagen is bluish). The wound margin created by the biopsy punch is indicated.
The tissue-engineered, two-layers 3D human corneas that have been used as a biomaterial were produced following the self-assembly approach (see FIG. 1). Briefly, corneal fibroblasts were seeded and cultured in fibroblast growth medium supplemented with 50 μg/ml ascorbic acid (Sigma, Oakville, Ont., Canada) for 35 days. Ascorbic acid allows fibroblasts to secrete and lay down their own ECM. After peeling from the flasks, two tissue sheets were superimposed to form a reconstructed stroma and were cultured for another week so that they could adhere to each other. […]
The wound healing of in vitro reconstructed cornea was studied. […] Wound healing was monitored daily with microphotographs. […]

rabbit corneas = experiment: Wound closure of rabbit corneas wounded with ethanol or N-heptanol combined with mechanical debridement; format: in vivo, New Zealand white rabbits; conditions: C646 10 μM applied 3-times/day to the eye, vs DMSO, n=4
Text: FIGS. 6A and 6B illustrate the impact of C646 on rabbit corneas wounded with either ethanol or N-heptanol combined to mechanical debridement. Rabbit corneas were wounded with ethanol (70%) or N-heptanol (100%) and mechanically debrided with a scalpel blade (crescent type). The rabbits were then divided into two groups: control corneas treated with DMSO or corneas treated with C646 (10 μm). n=4 for each conditions tested. (A) Fluorescein staining of corneas surgically wounded using either ethanol or N-heptanol combined with debridement using a crescent blade and treated with 10 μM C646. Wounded eyes were photographed using a slit lamp. (B) Graph representation of the remaining wounded corneal area (%) for each condition used in (A).
FIGS. 7A and 7B illustrate the impact of C646+SC79 on wounded rabbit corneas combined to mechanical debridement. Rabbit corneas were wounded with ethanol (70%) and mechanically debrided with a scalpel blade (crescent type). The rabbits were then divided into five groups: control corneas treated with DMSO, corneas treated with C646 (1 μM) and SC-79 (1 μM), corneas treated with C646 (1 μM) and SC-79 (10 μM), corneas treated with C646 (1 μM) and SC-79 (100 μM) and corneas treated with C646 (1 μm) and SC-79 (1 mM). n=4 for DMSO and n=5 for each remaining conditions tested. […]

mouse model of stroke = conditions: cited from earlier work
Akt = conditions: cell based assays; cited from earlier work

CC1=NN(c2ccc(C(=O)O)cc2)C(=O)C1=Cc1ccc(-c2cc(C)c(C)cc2[N+](=O)[O-])o1 [C646, 4-[4-[[5-(4,5-Dimethyl-2-nitrophenyl)-2-furanyl]methylene]-4,5-dihydro-3-methyl-5-oxo-1H-pyrazol-1-yl]benzoic acid]
wound closure when compared to control (DMSO) [1]: accelerated wound closure
wound closing time (rabbit corneas; ethanol (70%) injury combined with mechanical debridement): clear reduction in the wound closing time
wound closure (rabbit corneas; n-heptanol (100%) injury combined with mechanical debridement): no significant impact on wound closure

CC(C)NC[C@@H](C(=O)N1CCN(c2ncnc3c2[C@H](C)C[C@H]3O)CC1)c1ccc(Cl)cc1 [GDC-0068]
wound closure when compared to control (DMSO) [1]: delayed wound closure

CCOC(=O)C1=C(N)Oc2ccc(Cl)cc2C1C(C#N)C(=O)OCC (stereo not shown) [SC-79, Ethyl-2-amino-6-chloro-4-(1-cyano-2-ethoxy-2-oxoethyl)-4H-chromene-3-carboxylate]
wound closure when compared to control (DMSO) [1]: accelerated wound closure
neuronal death (mouse model of stroke): prevents neuronal death
cytosolic Akt signaling (Akt): induces cytosolic Akt signaling
